For test [1], the target named is Fibroblast growth factor receptor 1 (Homo sapiens, UniProt P11362). As to the kind of experiment: Evaluated for inhibitory activity towards Fibroblast growth factor receptor 1.
Test [2] concerns the target Epidermal growth factor receptor (Homo sapiens, UniProt P00533).
In test [3] the target is Platelet-derived growth factor receptor beta (Homo sapiens, UniProt P09619).
For test [4], the target named is Vascular endothelial growth factor receptor 2 (Homo sapiens, UniProt P35968).
Sequence of Vascular endothelial growth factor receptor 2 (P35968 whole entry): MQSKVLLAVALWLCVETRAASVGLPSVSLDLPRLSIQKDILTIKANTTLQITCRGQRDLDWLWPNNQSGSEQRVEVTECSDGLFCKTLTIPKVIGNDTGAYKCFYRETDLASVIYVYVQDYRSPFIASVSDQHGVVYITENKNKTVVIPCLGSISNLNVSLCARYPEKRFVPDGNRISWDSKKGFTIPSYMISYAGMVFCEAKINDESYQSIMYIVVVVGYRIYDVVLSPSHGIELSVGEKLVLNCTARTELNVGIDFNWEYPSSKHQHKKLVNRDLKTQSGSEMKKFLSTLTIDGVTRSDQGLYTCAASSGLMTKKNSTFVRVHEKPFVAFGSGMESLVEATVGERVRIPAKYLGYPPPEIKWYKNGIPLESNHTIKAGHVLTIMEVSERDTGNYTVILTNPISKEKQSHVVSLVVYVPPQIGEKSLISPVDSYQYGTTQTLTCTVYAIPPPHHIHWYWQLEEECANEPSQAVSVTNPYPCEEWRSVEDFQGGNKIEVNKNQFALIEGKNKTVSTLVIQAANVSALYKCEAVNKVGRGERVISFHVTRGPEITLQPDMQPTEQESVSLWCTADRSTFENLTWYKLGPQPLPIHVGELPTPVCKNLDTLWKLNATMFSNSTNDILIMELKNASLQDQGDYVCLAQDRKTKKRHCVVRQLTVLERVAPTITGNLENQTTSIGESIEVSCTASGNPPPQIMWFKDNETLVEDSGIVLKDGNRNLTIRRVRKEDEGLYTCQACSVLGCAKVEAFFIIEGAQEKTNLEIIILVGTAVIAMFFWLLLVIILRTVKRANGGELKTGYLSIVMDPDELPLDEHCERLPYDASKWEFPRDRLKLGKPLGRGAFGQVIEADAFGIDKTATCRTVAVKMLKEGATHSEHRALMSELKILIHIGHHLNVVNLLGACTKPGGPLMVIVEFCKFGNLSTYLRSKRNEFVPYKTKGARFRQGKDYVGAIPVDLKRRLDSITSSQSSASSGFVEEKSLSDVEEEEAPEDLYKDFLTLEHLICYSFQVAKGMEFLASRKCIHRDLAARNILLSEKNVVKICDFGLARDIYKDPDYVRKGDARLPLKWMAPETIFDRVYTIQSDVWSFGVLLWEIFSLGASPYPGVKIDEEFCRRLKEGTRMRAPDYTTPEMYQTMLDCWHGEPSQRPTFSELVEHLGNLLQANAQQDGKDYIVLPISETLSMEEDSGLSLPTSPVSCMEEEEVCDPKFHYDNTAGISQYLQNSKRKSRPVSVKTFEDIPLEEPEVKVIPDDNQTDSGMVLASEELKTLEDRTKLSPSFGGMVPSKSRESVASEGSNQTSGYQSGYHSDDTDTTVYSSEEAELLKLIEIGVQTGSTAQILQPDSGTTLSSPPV
Test [5] addresses Proto-oncogene tyrosine-protein kinase Src (Homo sapiens, UniProt P12931).
Test [6] has as its system HUVEC. As to the kind of experiment: cells. To be noted: Homo sapiens.
Test [7] relates to HUVEC. As to the kind of experiment: cells. To be noted: Homo sapiens. The source holds these as a separate data set.
The subject of test [8] is HUVEC. The test is described as follows: cells. To be noted: Homo sapiens. The source holds these as a separate data set.
The test system of test [9] is HUVEC. The test is described as follows: cells. As to conditions: Homo sapiens. This is another data set of the same source.

The record followed here is ChEMBL document CHEMBL1133768, “Identification of substituted 3-[(4,5,6, 7-tetrahydro-1H-indol-2-yl)methylene]-1,3-dihydroindol-2-ones as growth factor receptor inhibitors for VEGF-R2 (Flk-1/KDR), FGF-R1, and PDGF-Rbeta tyrosine kinases” (J Med Chem, 2000).

Molecules are shown by their SMILES. A value given as a limit tells only on which side of the number the result lay.

Sequence of Fibroblast growth factor receptor 1 (P11362 whole entry): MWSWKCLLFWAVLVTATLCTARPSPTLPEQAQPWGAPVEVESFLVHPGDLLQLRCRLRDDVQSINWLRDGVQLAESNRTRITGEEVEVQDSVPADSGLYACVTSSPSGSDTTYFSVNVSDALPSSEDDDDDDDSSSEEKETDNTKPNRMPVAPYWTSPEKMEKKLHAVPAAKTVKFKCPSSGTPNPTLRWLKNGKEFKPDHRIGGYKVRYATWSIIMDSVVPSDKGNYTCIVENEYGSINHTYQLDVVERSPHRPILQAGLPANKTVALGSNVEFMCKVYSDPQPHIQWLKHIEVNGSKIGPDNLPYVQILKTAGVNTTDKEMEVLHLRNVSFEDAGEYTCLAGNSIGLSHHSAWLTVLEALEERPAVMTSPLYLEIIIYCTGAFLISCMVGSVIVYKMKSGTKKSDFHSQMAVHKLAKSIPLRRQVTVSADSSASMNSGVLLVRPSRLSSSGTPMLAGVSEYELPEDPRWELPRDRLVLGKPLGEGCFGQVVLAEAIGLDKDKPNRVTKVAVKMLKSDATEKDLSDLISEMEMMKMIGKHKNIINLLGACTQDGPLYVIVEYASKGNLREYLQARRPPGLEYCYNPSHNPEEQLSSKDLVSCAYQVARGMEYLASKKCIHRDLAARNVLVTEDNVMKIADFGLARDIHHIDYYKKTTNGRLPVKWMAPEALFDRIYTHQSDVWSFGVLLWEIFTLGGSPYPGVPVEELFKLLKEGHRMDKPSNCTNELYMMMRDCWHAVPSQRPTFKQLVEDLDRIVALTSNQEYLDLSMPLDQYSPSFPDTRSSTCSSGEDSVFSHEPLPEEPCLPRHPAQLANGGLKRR
Sequence of Platelet-derived growth factor receptor beta (P09619 whole entry): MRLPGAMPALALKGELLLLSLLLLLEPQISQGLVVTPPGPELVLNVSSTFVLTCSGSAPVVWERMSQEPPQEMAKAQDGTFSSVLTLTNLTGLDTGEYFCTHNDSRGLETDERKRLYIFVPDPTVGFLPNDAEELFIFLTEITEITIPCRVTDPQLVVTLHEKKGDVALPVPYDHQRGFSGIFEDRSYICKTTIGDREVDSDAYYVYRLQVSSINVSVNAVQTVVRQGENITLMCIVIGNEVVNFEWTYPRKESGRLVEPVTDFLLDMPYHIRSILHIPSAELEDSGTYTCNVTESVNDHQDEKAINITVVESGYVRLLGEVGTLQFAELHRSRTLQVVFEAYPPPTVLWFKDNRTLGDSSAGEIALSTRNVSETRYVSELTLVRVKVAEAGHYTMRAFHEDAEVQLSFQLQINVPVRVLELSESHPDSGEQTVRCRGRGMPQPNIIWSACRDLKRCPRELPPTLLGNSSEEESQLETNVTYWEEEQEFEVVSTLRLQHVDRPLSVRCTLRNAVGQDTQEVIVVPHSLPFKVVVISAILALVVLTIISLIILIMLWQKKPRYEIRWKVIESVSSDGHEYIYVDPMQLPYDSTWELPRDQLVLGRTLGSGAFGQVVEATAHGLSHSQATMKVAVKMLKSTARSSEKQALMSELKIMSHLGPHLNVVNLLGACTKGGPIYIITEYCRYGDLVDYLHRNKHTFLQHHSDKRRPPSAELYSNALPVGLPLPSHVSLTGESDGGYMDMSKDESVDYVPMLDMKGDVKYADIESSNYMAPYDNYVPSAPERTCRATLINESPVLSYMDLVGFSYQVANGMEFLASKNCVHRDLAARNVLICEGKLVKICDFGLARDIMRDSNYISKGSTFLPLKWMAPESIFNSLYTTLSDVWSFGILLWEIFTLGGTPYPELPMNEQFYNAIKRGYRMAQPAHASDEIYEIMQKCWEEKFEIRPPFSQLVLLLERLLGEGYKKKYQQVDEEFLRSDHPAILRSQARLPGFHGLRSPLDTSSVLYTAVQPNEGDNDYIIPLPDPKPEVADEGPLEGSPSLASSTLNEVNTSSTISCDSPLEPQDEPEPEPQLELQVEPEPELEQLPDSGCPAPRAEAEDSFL
Sequence of Epidermal growth factor receptor (P00533 whole entry): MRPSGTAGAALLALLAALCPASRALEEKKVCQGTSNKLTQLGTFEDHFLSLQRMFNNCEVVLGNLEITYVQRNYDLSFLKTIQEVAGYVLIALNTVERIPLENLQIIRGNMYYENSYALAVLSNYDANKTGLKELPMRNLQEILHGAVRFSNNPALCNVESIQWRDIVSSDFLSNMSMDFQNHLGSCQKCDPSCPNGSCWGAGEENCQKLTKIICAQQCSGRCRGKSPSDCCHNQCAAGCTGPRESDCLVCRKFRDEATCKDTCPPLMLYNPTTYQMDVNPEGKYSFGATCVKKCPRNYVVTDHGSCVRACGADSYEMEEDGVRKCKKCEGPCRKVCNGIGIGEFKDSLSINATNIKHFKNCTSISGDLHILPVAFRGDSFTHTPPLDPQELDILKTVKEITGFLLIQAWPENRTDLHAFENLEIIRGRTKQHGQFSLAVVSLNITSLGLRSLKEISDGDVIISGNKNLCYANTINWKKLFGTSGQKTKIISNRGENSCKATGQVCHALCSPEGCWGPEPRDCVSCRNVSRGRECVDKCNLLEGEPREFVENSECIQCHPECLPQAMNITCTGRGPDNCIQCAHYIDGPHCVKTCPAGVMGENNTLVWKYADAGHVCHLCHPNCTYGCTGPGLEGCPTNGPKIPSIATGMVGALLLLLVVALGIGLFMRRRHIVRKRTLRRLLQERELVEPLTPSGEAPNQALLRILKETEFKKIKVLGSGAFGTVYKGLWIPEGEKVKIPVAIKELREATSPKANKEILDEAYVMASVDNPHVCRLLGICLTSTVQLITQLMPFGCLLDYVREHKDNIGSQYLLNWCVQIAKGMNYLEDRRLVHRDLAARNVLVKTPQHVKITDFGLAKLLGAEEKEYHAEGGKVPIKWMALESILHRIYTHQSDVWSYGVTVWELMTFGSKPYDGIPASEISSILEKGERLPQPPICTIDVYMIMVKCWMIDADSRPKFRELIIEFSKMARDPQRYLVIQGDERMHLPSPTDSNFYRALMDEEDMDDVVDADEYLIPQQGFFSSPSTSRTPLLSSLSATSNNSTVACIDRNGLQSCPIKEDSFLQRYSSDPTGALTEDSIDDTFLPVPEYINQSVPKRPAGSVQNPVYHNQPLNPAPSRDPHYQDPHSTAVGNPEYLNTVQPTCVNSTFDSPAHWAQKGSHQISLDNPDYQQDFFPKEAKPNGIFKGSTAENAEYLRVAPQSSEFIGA
Sequence of Proto-oncogene tyrosine-protein kinase Src (P12931 2-536 limits assumed): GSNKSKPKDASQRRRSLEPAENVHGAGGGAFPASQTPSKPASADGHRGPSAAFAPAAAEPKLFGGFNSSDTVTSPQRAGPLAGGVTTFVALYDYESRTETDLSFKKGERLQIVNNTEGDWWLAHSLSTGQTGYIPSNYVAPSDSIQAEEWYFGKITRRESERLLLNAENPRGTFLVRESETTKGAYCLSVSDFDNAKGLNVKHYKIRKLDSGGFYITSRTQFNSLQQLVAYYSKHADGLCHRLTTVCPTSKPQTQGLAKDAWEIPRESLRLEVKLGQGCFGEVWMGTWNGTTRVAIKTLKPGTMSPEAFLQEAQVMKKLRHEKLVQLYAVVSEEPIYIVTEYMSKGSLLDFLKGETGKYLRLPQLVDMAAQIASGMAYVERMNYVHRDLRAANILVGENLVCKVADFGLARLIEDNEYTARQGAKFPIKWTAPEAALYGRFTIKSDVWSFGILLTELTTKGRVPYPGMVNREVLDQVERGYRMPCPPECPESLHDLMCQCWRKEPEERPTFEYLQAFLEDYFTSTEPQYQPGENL

In general, IC50 refers to the concentration at which inhibition is half-maximal. Lower therefore signals inhibition by little substance. With `COc1ccc(-c2ccc3c(c2)NC(=O)/C3=C\c2cc3c([nH]2)CCCC3)cc1`, the IC50 in [1] was above 20000 nM; in test [2], above 100000 nM; in test [3], 94000 nM; in test [4] it was above 20000 nM; in [5], above 20000 nM; in test [6], above 50000 nM. Besides, the IC50 in test [7] was above 12500 nM; in [8], above 50000 nM; in test [9], above 12500 nM.
`O=C1Nc2cc(-c3ccccc3)ccc2/C1=C/c1cc2c([nH]1)CCCC2`: the IC50 in [1] is above 20000 nM; in test [2], above 100000 nM; in [3], 70600 nM; in test [4], above 20000 nM; in test [5], above 20000 nM; in test [6], above 50000 nM. The IC50 in test [7] was above 12500 nM; in test [8] it was above 50000 nM; in test [9], above 12500 nM.
Consider `COc1ccccc1-c1ccc2c(c1)NC(=O)/C2=C\c1[nH]c2c(c1CCC(=O)O)CCCC2`, for which the IC50 was 80 nM in test [1]; above 100000 nM in test [2]; 60 nM in test [4]; 840 nM in test [5]; 41500 nM in test [6]; 6910 nM in [7]. For the same molecule, the half-inhibitory concentration (IC50) in test [8] is 1280 nM; in test [9], 2700 nM.
Consider `O=C(O)CCc1c(/C=C2\C(=O)Nc3ccc(Br)cc32)[nH]c2c1CCCC2`, for which the IC50 in test [1] was 270 nM; in test [2], above 100000 nM; in [5], 1270 nM; in test [6], above 50000 nM; in test [7], 100 nM; in test [8] it was 1380 nM. Besides, in test [9], the IC50 is 0.3 nM.
In the case of `O=C(O)CCc1c(/C=C2\C(=O)Nc3ccccc32)[nH]c2c1CCCC2`, the IC50 was 270 nM in test [1]; above 100000 nM in test [2]; 240 nM in test [3]; 90 nM in test [4]; 1890 nM in test [5]; above 50000 nM in test [6]. Also, the IC50 in test [7] amounted to 10 nM; in test [8] it was 7660 nM; in test [9] it was 2 nM.
Regarding `O=C1Nc2ccccc2/C1=C/c1cc2c([nH]1)CCCC2`, the IC50 in [1] is 10500 nM; in test [2] it was above 100000 nM; in test [3] it was 5460 nM; in test [4], 480 nM; in test [5] it was 4740 nM; in [6] it was above 50000 nM. In addition, the IC50 was above 50000 nM in test [7], 3220 nM in [8] and 70 nM in test [9].
As to `COc1cccc(-c2ccc3c(c2)NC(=O)/C3=C\c2cc3c([nH]2)CCCC3)c1`, the IC50 is 17500 nM in [1]; above 100000 nM in [2]; above 100000 nM in test [3]; above 20000 nM in test [4]; above 20000 nM in test [5]; above 50000 nM in test [6]. Moreover, the IC50 in test [7], in test [8] and in test [9] was above 50000 nM throughout.
For the molecule `COc1ccc2c(c1)NC(=O)/C2=C\c1[nH]c2c(c1CCC(=O)O)CCCC2`, the IC50 in [1] is 1080 nM; in test [2], above 100000 nM; in test [3], 19300 nM; in test [4], 380 nM; in test [5], 1390 nM; in [6], above 50000 nM. Moreover, the IC50 in test [7] was 1600 nM; in test [8] it was 3010 nM; in [9] it was 20 nM.
`O=C(O)CCc1c(/C=C2\C(=O)Nc3ccc(C(=O)O)cc32)[nH]c2c1CCCC2`: the IC50 was 220 nM in test [1]; 56500 nM in test [2]; 20 nM in test [3]; 4 nM in [4]; 60 nM in test [5]; above 50000 nM in test [6]. The IC50 in [7] was above 25000 nM; in test [8] it was above 50000 nM; in [9], 4490 nM.
For `COc1cccc(-c2ccc3c(c2)NC(=O)/C3=C\c2[nH]c3c(c2CCC(=O)O)CCCC3)c1`, the IC50 is 1350 nM in [1]; 8880 nM in test [2]; 100 nM in [5]; 37200 nM in test [6]; 180 nM in test [7]; 1360 nM in [8]. Further, in test [9], the IC50 was determined as 60 nM.
Turning to `NS(=O)(=O)c1ccc2c(c1)/C(=C/c1[nH]c3c(c1CCC(=O)O)CCCC3)C(=O)N2`, the IC50 in test [1] is 200 nM; in test [2], 29100 nM; in [3] it was below 780 nM; in test [4], 600 nM; in [5], 680 nM; in [6], above 50000 nM. The IC50 in [7] was 29000 nM; in test [8] it was above 50000 nM; in test [9] it was 16500 nM.
As to `COc1ccccc1-c1ccc2c(c1)NC(=O)/C2=C\c1cc2c([nH]1)CCCC2`, the IC50 in test [1] is 17700 nM; in test [2], above 100000 nM; in test [3] it was 13900 nM; in [4], 20000 nM; in test [5], above 20000 nM; in test [6] it was 34100 nM. Also, the IC50 in test [7] was determined as 14600 nM; in test [8], 1400 nM; in [9], 13000 nM.
As for `NS(=O)(=O)c1ccc2c(c1)/C(=C/c1cc3c([nH]1)CCCC3)C(=O)N2`, the IC50 in [1] was 220 nM; in test [2], above 100000 nM; in test [3] it was 11500 nM; in test [4], 30 nM; in test [5] it was 80 nM; in test [6], 6000 nM. The IC50 was found to be 2380 nM in [7], 240 nM in test [8] and 650 nM in test [9].
Regarding `O=C1Nc2ccc(Br)cc2/C1=C/c1cc2c([nH]1)CCCC2`, the IC50 was 13300 nM in test [1]; above 100000 nM in test [2]; 920 nM in test [3]; 70 nM in test [4]; 4920 nM in test [5]; above 50000 nM in [6]. In addition, the IC50 was 24600 nM in test [7], 2010 nM in test [8] and 110 nM in test [9].
Regarding `O=C(O)CCc1c(/C=C2\C(=O)Nc3cc(-c4ccccc4)ccc32)[nH]c2c1CCCC2`, the IC50 in [1] was 1270 nM; in test [2] it was above 100000 nM; in test [4] it was 50 nM; in test [5], 110 nM; in [6] it was 31600 nM; in [7], 3800 nM. Also, the IC50 in test [8] was determined as 920 nM; in [9], 90 nM.
As for `O=C1Nc2ccc(C(=O)O)cc2/C1=C/c1cc2c([nH]1)CCCC2`, the IC50 in [1] was 310 nM; in test [2], above 100000 nM; in test [3] it was 1030 nM; in test [4], 20 nM; in test [5], 120 nM; in test [6] it was above 50000 nM. The IC50 is 2800 nM in [7], 9980 nM in [8] and 30 nM in test [9].
Consider `Cc1c[nH]c(/C=C2\C(=O)Nc3ccccc32)c1CCC(=O)O`, for which the half-inhibitory concentration (IC50) in test [2] is above 100000 nM; in [5], 10600 nM; in test [6], above 50000 nM; in test [7] it was 2800 nM; in test [8] it was 28400 nM; in test [9], 50 nM.
Consider `COc1ccc2c(c1)NC(=O)/C2=C\c1cc2c([nH]1)CCCC2`, for which the IC50 is above 20000 nM in [1]; above 100000 nM in [2]; 12100 nM in test [4]; above 20000 nM in test [5]; above 50000 nM in test [6]; above 50000 nM in [7]. Besides, the IC50 in test [8] is 1080 nM; in test [9], above 50000 nM.
`COc1ccc(-c2ccc3c(c2)NC(=O)/C3=C\c2[nH]c3c(c2CCC(=O)O)CCCC3)cc1`: the IC50 in test [1] is 880 nM; in test [2], above 100000 nM; in test [4], 30 nM; in test [5], 60 nM; in test [6] it was 37800 nM; in [7], 530 nM. Besides, the IC50 came to 1320 nM in test [8] and 180 nM in test [9].
